These results are taken from patent US20090099237A1, “Methods of treating inflammatory diseases” (Roche Palo Alto LLC, priority 2007, published 2009).

The target in experiment [1] is T1, CK1α (Homo sapiens, UniProt P48729).
T1 construct: purchased Invitrogen
Put plainly: In vitro kinase assay (33P, peptide substrate). The class given is biochemical.

The test system of experiment [2] is IL-8 production in neutrophils. Put plainly: Neutrophil assay, IL-8 production. In kind it is cell-based. To be noted: human neutrophils stimulated by inflammatory agents; FIG. 2. An excerpt:
(§1) Selective CK1α, CK1α-CK1δ, CK1α-CK1ε or CK1α-CK1δ-CK1ε inhibitors can be tested for their antiinflammatory effects using a variety of in vitro and in vivo tests that are well known in the art. One such in vitro test involves the application of the inhibitor to human neutrophils to observe whether the induction of inflammatory cytokines, such as IL-8, by tumor necrosis factor (TNF) or lipopolysaccharide (LPS) can be reduced. This test is further described in Example 3. An example of an in vivo test, as described in Example 4, is the air pouch model of inflammatory synovitis in mice in which the inhibitors are tested for their blockade of neutrophil influx as well as of inflammatory cytokine accumulation.
The Histopaque 1077 and 1119 gradient density centrifugation method (Sigma-Aldrich) was used to isolate granulocytes from human blood. The granulocytes were recovered from the 1077/1119 interphase, washed twice with PBS. The red blood cells were lysed with PureGene red cell lysis buffer (Gentra Biosystems). The cells were washed again and resuspended in growth media (RPMI, 10% FBS, β-mercaptoethanol, Pen/Strep/glutamine and sodium pyruvate) at a density of 1 to 5 million per ml. […] The supernatant was analyzed for cytokine production (Luminex human 22-plex assay) and the cells were lysed for RNA production and analysis.

The subject of experiment [3] is LPS-induced air pouch synovitis. As to the kind of experiment: Air pouch synovitis model. In kind it is in vivo, Balbc/J mice. To be noted: 1 μg LPS, FIG. 3.
Excerpt: as §1
Adult Balbc/J mice were purchased from Charles River Labs and housed and utilized according IACUC protocols and standards. The airpouch was inflated on the dorsal surface of each mouse with 3 ml of air, after light anesthesia with CO2/O2 mix. Three days later each pouch was re-inflated with 3 mls of air. After an additional three days, the pouches were injected with vehicle or compound (normally in 0.1% DMSO in PBS) in 1 ml per pouch. After 20 to 30 minutes, each pouch received 1 μg of LPS or control (PBS). The animals were euthanized four to six hours later. The pouches were flushed with 2 ml of PBS, the cells were then collected, counted and normalized for volume recovered. The fluid recovered was analyzed for cytokine production (Luminex Mouse 21-plex assay). The cells were lysed for RNA or protein analysis.

T1 sequence (P48729 whole entry): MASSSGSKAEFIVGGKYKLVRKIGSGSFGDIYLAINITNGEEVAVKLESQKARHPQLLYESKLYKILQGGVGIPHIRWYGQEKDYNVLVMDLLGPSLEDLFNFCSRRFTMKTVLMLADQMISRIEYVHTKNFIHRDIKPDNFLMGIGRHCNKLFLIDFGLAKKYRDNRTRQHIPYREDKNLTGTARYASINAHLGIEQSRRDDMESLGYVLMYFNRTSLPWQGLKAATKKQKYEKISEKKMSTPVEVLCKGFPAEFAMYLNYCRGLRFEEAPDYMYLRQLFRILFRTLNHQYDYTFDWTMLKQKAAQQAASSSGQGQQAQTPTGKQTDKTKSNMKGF

In experiment [1], `NC(=O)c1ccc(-c2nc(-c3ccc4c(c3)OCO4)c(-c3ccccn3)[nH]2)cc1` [SB431542, 4-(4-benzo-[1,3]dioxol-5-yl-5-pyridin-2-yl-1H-imidazol-2-yl)benzamide] registered an IC50 of 1400 nM. The “inhibition of IL-8 production in neutrophils” value in experiment [2] was “dose-dependent inhibition”. Moreover, in experiment [3] (mouse air pouch fluid), the “production of IL-6” value is reported as “inhibited” and the “production of MCP1” value is listed as “inhibited”. In addition, the neutrophil influx result in experiment [3] (mouse air pouch, compound injected into pouch) is “inhibited”.

What is called IC50 is the concentration that inhibits the measured activity by half. Low values mean greater potency in that assay, high ones weaker potency in that assay.
